According to publication PMC12339982 (Nature Communications, 2025):
Residue numbers refer to the chain shown, from its start.

How the values were obtained:
TauT^WT and variants [1] = molecular target: T1, TauT^WT and variants (Homo sapiens, UniProt P31641, E406C); assay: [3H]γ-aminobutyric acid uptake by TauT^WT and variants in HEK293T cells; format: cell-based; details: mutation Glu406Cys
T1 sequence (P31641 1-620 E406C): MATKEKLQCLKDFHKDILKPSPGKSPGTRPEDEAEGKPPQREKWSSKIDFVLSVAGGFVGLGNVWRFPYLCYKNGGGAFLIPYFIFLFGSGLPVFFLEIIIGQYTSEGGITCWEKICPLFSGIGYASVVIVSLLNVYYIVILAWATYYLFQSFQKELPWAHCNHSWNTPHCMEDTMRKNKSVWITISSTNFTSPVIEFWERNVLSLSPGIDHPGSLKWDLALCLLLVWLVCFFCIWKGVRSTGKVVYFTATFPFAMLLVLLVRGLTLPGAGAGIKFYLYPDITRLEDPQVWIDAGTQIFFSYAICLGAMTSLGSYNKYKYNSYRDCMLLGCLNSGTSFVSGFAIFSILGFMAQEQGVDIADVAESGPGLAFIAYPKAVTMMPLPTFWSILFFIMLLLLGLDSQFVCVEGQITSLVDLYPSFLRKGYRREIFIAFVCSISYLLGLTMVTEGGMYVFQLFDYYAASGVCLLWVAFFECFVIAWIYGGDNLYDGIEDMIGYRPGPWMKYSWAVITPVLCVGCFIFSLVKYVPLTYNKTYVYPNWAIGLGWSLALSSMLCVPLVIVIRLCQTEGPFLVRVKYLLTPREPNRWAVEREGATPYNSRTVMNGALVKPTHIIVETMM

TauT^WT and variants [2] = assay: as above; format: cell-based, human; details: amino acid substitutions in Gly57, Phe58, Leu306
TauT G62A mutant = molecular target: T2, TauT G62A mutant (Homo sapiens, UniProt P31641, G62A); assay: MST binding, TauT G62A; details: mean ± s.e.m., n=3
T2 sequence (P31641 1-620 G62A): T1 sequence (P31641 1-620 E406C) with G62A, C406E

TauT^WT and variants [3] = molecular target: T3, TauT^WT and variants (Homo sapiens, UniProt P31641, L134C); assay: [3H]taurine uptake; format: cell-based; details: mutation Leu134Cys
T3 sequence (P31641 1-620 L134C): T1 sequence (P31641 1-620 E406C) with L134C, C406E

TauT^WT and variants [4] = assay: [3H]taurine uptake; format: cell-based, human
TauT F58A mutant = molecular target: T4, TauT F58A mutant (Homo sapiens, UniProt P31641, F58A); assay: MST binding, TauT F58A; details: mean ± s.e.m., n=3
T4 sequence (P31641 1-620 F58A): T1 sequence (P31641 1-620 E406C) with F58A, C406E

Kd (MST) (TauT G62A mutant) | transport activity of taurine (TauT^WT and variants [3]) | Structure (SMILES) | transport activity of GABA (TauT^WT and variants [1]) | transport activity for GABA (TauT^WT and variants [2]) | taurine transport activity (TauT^WT and variants [4]; Asn63, Ser301, Asn333 substituted with alanine or aspartate (Na1 site)) | transport activity for taurine (TauT^WT and variants [4]; amino acid substitutions in Gly57, Phe58, Leu306) | taurine transport activity (TauT^WT and variants [4]; mutations in Asp401 and Ser402 (Na2 site)) | Kd (MST) (TauT F58A mutant)
complete loss of the binding | – | NCCCC(=O)O [GABA, γ-aminobutyric acid] | significant increase in the transport activity | decrease in transport activity | – | – | – | –
drastic loss of GAA binding affinity | – | [H]/N=C(/N)NCC(=O)O [GAA, guanidinoacetate] | – | – | – | – | – | –
– | significantly lower transport activity | NCCS(=O)(=O)O [Taurine, taurine] | – | – | complete loss of function | decrease in transport activity | weaken the substrate transport function | reduced the taurine binding to varying extents
